# Experimental data: patent US20220324865A1 (Bayer Aktiengesellschaft, priority 2018, published 2022)
# Target: T1, human EP3 receptor (Homo sapiens, UniProt P43115)
# T1 construct: expressed in transfected cells; host or cells: CHO K1 (Chinese Hamster Ovary), stably co-transfected with Galpha16 and mitochondrial clytin
# T1 sequence (P43115 1-390): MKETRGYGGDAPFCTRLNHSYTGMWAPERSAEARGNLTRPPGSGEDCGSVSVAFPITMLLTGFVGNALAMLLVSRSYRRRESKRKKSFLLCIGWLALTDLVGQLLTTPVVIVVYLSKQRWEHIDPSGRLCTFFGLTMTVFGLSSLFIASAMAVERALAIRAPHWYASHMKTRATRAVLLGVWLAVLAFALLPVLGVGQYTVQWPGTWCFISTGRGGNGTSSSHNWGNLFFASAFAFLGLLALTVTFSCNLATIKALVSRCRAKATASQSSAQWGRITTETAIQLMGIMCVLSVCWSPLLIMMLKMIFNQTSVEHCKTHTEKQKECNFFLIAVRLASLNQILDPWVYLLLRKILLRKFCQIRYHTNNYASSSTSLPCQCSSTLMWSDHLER
# Test: Cellular in vitro assay for determining EP3 receptor activity (human EP3 cell line, sulprostone-stimulated calcium luminescence)
# Format: cell-based
# Conditions: CHO cells expressing human EP3 and mitochondrial Clytin; antagonist mode, sulprostone at EC50; read-out: EP3 CHO mtCLY ANTAG IC50
# Method in brief: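 Antagonist activity was measured as inhibition of the luminescent calcium signal elicited by EC50 sulprostone, following 10 min compound pretreatment. The cell line was recombinant CHO K1 co-expressing human EP3, Gα16 and the photoprotein Clytin, reconstituted with coelenterazine.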
row,IC50 [nM],SMILES
1,0.735,"Cc1cccc2ncc(-c3cn4nc(C(=O)NC(C)c5ccc(F)cc5)c(C(C)C)c4c(=O)[nH]3)cc12 (centres unmarked) [Example 4-11, N-[1-(4-Fluorophenyl)ethyl]-3-isopropyl-6-(5-methyl-3-quinolyl)-4-oxo-5H-pyrazolo[1,5-a]pyrazine-2-carboxamide]"
2,1.9,"Cc1cccc2ncc(-c3cn4nc(C(=O)NCCCS(C)(=O)=O)c(C(C)C)c4c(=O)[nH]3)cc12 [Example 4-35, N-[3-(Methansulfonyl)propyl]-6-(5-methylquinolin-3-yl)-4-oxo-3-(propan-2-yl)-4,5-dihydropyrazolo[1,5-a]pyrazine-2-carboxamide]"
3,0.95,Cc1ccc(-c2cn3nc(C(=O)NC4CC(F)(F)C4)c(C4CC4)c3c(=O)[nH]2)cc1Cl [6-255]
4,2.05,"CC(NC(=O)c1cc2c(=O)[nH]c(-c3ccc4ccccc4c3)cn2n1)c1ccc(Cl)c(Cl)c1 (centres unmarked) [Example 2-51, N-[1-(3,4-Dichlorphenyl)ethyl]-6-(2-naphthyl)-4-oxo-4,5-dihydropyrazolo[1,5-a]pyrazine-2-carboxamide]"
5,7.13,O=C(NC(CO)(CO)C(F)(F)F)c1nn2cc(-c3ccc4ccccc4c3)[nH]c(=O)c2c1C(F)(F)F [6-498]
6,1.1,"Cc1cccc2ncc(-c3cn4nc(C(=O)NC(C)c5ccc(S(N)(=O)=O)cc5)c(C(C)C)c4c(=O)[nH]3)cc12 (centres unmarked) [Example 4-53, 3-Isopropyl-6-(5-methyl-3-quinolyl)-4-oxo-N-[1-(4-sulfamoylphenyl)ethyl]-5H-pyrazolo[1,5-a]pyrazine-2-carboxamide]"
7,1.25,"Cc1ccc(CNC(=O)c2cc3c(=O)[nH]c(-c4ccc5ccccc5c4)cn3n2)cc1 [Example 2-14, N-(4-Methylbenzyl)-6-(2-naphthyl)-4-oxo-4,5-dihydropyrazolo[1,5-a]pyrazine-2-carboxamide]"
8,1.65,"Cc1cccc2ncc(-c3cn4nc(C(=O)NC5(c6ccc(C#N)cc6)CC5)c(C(C)C)c4c(=O)[nH]3)cc12 [Example 4-3, N-[1-(4-Cyanophenyl)cyclopropyl]-6-(5-methylquinolin-3-yl)-4-oxo-3-(propan-2-yl)-4,5-dihydropyrazolo[1,5-a]pyrazine-2-carboxamide]"
9,7.15,"CC(C)(C)CNC(=O)c1cc2c(=O)[nH]c(-c3ccc4ccccc4c3)cn2n1 [Example 2-11, N-(2,2-Dimethylpropyl)-6-(2-naphthyl)-4-oxo-4,5-dihydropyrazolo[1,5-a]pyrazine-2-carboxamide]"
10,1.55,"Cc1ccc([C@@H](C)NC(=O)c2nn3c(C)c(-c4ccc5ccccc5c4)[nH]c(=O)c3c2C)cc1 [Example 3-19, 3,7-Dimethyl-N-[(7R)-1-(4-methylphenyl)ethyl]-6-(naphthalen-2-yl)-4-oxo-4,5-dihydropyrazolo[1,5-a]pyrazine-2-carboxamide]"
11,1.8,"Cc1cccc2ncc(-c3cn4nc(C(=O)NC(C)c5ccc(S(C)(=O)=O)cc5)c(C(C)C)c4c(=O)[nH]3)cc12 (centres unmarked) [Example 4-61, 3-Isopropyl-6-(5-methyl-3-quinolyl)-N-[1-(4-methylsulfonylphenyl)ethyl]-4-oxo-5H-pyrazolo[1,5-a]pyrazine-2-carboxamide]"
12,1.7,"C[C@@H](NC(=O)c1cc2c(=O)[nH]c(-c3ccc4c(c3)CCCC4)cn2n1)c1ccc(F)cc1 [Example 1-101, N-[(1R)-1-(4-Fluorophenyl)ethyl]-4-oxo-6-(5,6,7,8-tetrahydronaphthalen-2-yl)-4,5-dihydropyrazolo[1,5-a]pyrazine-2-carboxamide]"
13,4.75,Cc1ccc(-c2cn3nc(C(=O)NCCN(CC(F)F)C4CC4)c(C(F)(F)F)c3c(=O)[nH]2)cc1Cl [6-152]
14,3.15,"COc1ccc(C(NC(=O)c2nn3cc(-c4ccc5ccccc5c4)[nH]c(=O)c3c2C#N)C2CC2)cc1 (centres unmarked) [Example 3-56, 3-Cyano-N-[cyclopropyl(4-methoxyphenyl)methyl]-6-(2-naphthyl)-4-oxo-5H-pyrazolo[1,5-a]pyrazine-2-carboxamide]"
15,7.23,"Cc1ccc(-c2cn3nc(C(=O)NC4(c5ccc(F)cc5)CN(C)C4)c(C)c3c(=O)[nH]2)cc1Cl [Example 1-150, 6-(3-Chloro-4-methylphenyl)-N-[3-(4-fluorophenyl)-1-methylazetidin-3-yl]-3-methyl-4-oxo-4,5-dihydropyrazolo[1,5-a]pyrazine-2-carboxamide]"
16,4.65,"Cc1cnn(C(CNC(=O)c2cc3c(=O)[nH]c(-c4ccc5ccccc5c4)cn3n2)C(C)C)c1 (centres unmarked) [Example 2-12, N-[3-Methyl-2-(4-methyl-1H-pyrazol-1-yl)butyl]-6-(2-naphthyl)-4-oxo-4,5-dihydropyrazolo[1,5-a]pyrazine-2-carboxamide]"
17,1.87,"COc1ccc(CNC(=O)c2cc3c(=O)[nH]c(-c4ccc5ccccc5c4)cn3n2)cc1OC [Example 1-103, N-(3,4-Dimethoxybenzyl)-6-(2-naphthyl)-4-oxo-4,5-dihydropyrazolo[1,5-a]pyrazin-2-carboxamide]"
18,2,CC[C@@H](C)NC(=O)c1nn2cc(-c3ccc(Cl)c(C)c3)[nH]c(=O)c2c1C1CC1 [6-332]
19,2.28,COc1ccc(CCNC(=O)c2cc3c(=O)[nH]c(-c4ccc5c(c4)OCCO5)cn3n2)cc1OC [6-77]
20,2.7,"Cc1ccc(-c2cn3nc(C(=O)NCC(O)C(F)F)c(C4CC4)c3c(=O)[nH]2)cc1F (single isomer, unassigned) [6-371]"
21,1.95,Cc1cc(-c2cn3nc(C(=O)N[C@H](C)C4CC4)c(C(F)(F)F)c3c(=O)[nH]2)ccc1Cl [6-218]
22,2.43,COC[C@H](NC(=O)c1cc2c(=O)[nH]c(-c3ccc4c(c3)OCCO4)cn2n1)c1ccccc1 [6-46]
23,1.25,"Cc1cccc2ncc(-c3cn4nc(C(=O)NC(CO)c5ccc(Br)cc5)c(C(C)C)c4c(=O)[nH]3)cc12 (centres unmarked) [Example 4-75, N-[1-(4-Bromophenyl)-2-hydroxyethyl]-3-isopropyl-6-(5-methyl-3-quinolyl)-4-oxo-5H-pyrazolo[1,5-a]pyrazine-2-carboxamide]"
24,3.45,"Cc1ccc(-c2cn3nc(C(=O)NCC(N)C(F)(F)F)c(C4CC4)c3c(=O)[nH]2)cc1F (single isomer, unassigned) [6-397]"
25,1.6,C[C@H](NC(=O)c1nn2cc(-c3cc(Cl)c(Cl)cc3F)[nH]c(=O)c2c1C1CC1)C1CC1 [6-581]
26,0.715,"Cc1ccc(-c2cn3nc(C(=O)NC(CCO)c4ccc(C(F)(F)F)cc4)cc3c(=O)[nH]2)cc1C (centres unmarked) [Example 1-86, 6-(3,4-Dimethylphenyl)-N-[3-hydroxy-1-[4-(trifluoromethyl)phenyl]propyl]-4-oxo-5H-pyrazolo-[1,5-a]pyrazine-2-carboxamide]"
27,1.35,"Cc1cccc2ncc(-c3cn4nc(C(=O)N[C@H](CCO)c5ccccc5)c(C(C)C)c4c(=O)[nH]3)cc12 [Example 1-88, N-[(1R)-3-Hydroxy-1-phenylpropyl]-6-(5-methylquinolin-3-yl)-4-oxo-3-(propan-2-yl)-4,5-dihydropyrazolo[1,5-a]pyrazine-2-carboxamide]"
28,2.63,CC(NC(=O)c1cc2c(=O)[nH]c(-c3ccc4cccnc4c3)cn2n1)c1ccc(F)cc1 (centres unmarked) [6-27]
29,0.488,"COCc1c(C(=O)N[C@H](CCO)c2ccc(F)cc2)nn2cc(-c3ccc4ccccc4c3)[nH]c(=O)c12 [Example 1-55, N-[(1R)-1-(4-Fluorophenyl)-3-hydroxopyl]-3-(methoxymethyl)-6-(naphthalen-2-yl)-4-oxo-4,5-dihydropyrazolo[1,5-a]pyrazine-2-carboxamide]"
